Measured values from US12479840B2, “HMG-CoA reductase degradation inducing compound” (Uppthera, priority 2020, dated 2025).

Biological target: T1, HMG-CoA reductase (Homo sapiens, UniProt P04035)
T1 construct: endogenous in cells; host or cells: HepG2 (Korea Cell Line Bank)
T1 sequence (P04035 1-888): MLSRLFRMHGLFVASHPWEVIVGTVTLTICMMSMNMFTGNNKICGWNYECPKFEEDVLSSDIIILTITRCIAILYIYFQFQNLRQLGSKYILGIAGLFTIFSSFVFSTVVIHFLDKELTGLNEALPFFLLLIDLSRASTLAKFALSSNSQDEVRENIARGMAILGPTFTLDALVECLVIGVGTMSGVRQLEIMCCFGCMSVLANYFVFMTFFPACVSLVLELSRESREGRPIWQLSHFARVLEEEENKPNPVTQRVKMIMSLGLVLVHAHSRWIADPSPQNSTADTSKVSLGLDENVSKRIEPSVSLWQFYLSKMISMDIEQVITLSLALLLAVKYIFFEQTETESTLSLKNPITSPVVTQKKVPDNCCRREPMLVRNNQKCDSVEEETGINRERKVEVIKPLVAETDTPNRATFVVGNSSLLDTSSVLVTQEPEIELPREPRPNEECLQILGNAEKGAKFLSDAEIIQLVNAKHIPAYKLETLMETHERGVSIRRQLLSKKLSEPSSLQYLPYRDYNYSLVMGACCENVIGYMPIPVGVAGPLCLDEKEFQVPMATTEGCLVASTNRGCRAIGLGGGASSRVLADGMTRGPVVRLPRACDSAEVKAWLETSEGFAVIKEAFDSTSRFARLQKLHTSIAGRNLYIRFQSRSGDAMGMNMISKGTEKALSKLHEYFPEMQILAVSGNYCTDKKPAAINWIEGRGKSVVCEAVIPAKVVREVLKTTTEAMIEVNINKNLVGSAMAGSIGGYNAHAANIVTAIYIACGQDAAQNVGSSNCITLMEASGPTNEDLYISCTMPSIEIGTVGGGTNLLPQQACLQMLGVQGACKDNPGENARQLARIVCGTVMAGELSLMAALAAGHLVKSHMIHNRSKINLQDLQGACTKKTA
Experiment: HMG-CoA reductase (HMGCR) degradation in HepG2 cells by western blotting
Assay type: cell-based
Details: treated for 18 hours, ratio of HMG-CoA reductase to GAPDH, read-out: DC50
How it was run: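 HepG2 cells (passage P105–P110) treated 18 hours with compounds in 10-point three-fold dilutions from 3 μM. RIPA lysates (15 μg protein, BCA-quantified) run on SDS-PAGE and immunoblotted for HMGCR (1:500) with GAPDH (1:20000) as loading control, primary antibodies 16 hours at 4° C.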

For `Cc1ncsc1-c1ccc(CNC(=O)[C@@H]2C[C@@H](O)CN2C(=O)[C@@H](NC(=O)C2(F)CC2)C(C)(C)C)c(OCCCCCCCCNC(=O)O[C@H]2C[C@@H](C)C=C3C=C[C@H](C)[C@H](CC[C@@H]4C[C@@H](O)CC(=O)O4)[C@H]32)c1` [Compound 165, (1S,3R,7S,8S,8aR)-8-(2-((2R,4R)-4-hydroxy-6-oxotetrahydro-2H-pyran-2-yl)ethyl)-3,7-dimethyl-1,2,3,7,8,8a-hexahydronaphthalen-1-yl (8-(2-(((2S,4R)-1-((S)-2-(1-fluorocyclopropane-1-carboxamido)-3,3-dimethylbutanoyl)-4-hydroxypyrrolidine-2-carboxamido)methyl)-5-(4-methylthiazol-5-yl)phenoxy)octyl)carbamate], which DC50 is on record?
The DC50 was < 50 nM.

Which DC50 does the source give for `Cc1ncsc1-c1ccc(CNC(=O)[C@@H]2C[C@@H](O)CN2C(=O)[C@@H](NC(=O)C2(F)CC2)C(C)(C)C)c(OCCCCCCCCCNC(=O)O[C@H]2C[C@@H](C)C=C3C=C[C@H](C)[C@H](CC[C@@H]4C[C@@H](O)CC(=O)O4)[C@H]32)c1` [Compound 166, (1S,3R,7S,8S,8aR)-8-(2-((2R,4R)-4-hydroxy-6-oxotetrahydro-2H-pyran-2-yl)ethyl)-3,7-dimethyl-1,2,3,7,8,8a-hexahydronaphthalen-1-yl (9-(2-(((2S,4R)-1-((S)-2-(1-fluorocyclopropane-1-carboxamido)-3,3-dimethylbutanoyl)-4-hydroxypyrrolidine-2-carboxamido)methyl)-5-(4-methylthiazol-5-yl)phenoxy)nonyl)carbamate] here?
The DC50 was < 50 nM.

Which DC50 does the source give for `Cc1ncsc1-c1ccc(CNC(=O)[C@@H]2C[C@@H](O)CN2C(=O)[C@@H](NC(=O)C2(F)CC2)C(C)(C)C)c(OCCCCCCCCCCNC(=O)O[C@H]2C[C@@H](C)C=C3C=C[C@H](C)[C@H](CC[C@@H]4C[C@@H](O)CC(=O)O4)[C@H]32)c1` [Compound 167, (1S,3R,7S,8S,8aR)-8-(2-((2R,4R)-4-hydroxy-6-oxotetrahydro-2H-pyran-2-yl)ethyl)-3,7-dimethyl-1,2,3,7,8,8a-hexahydronaphthalen-1-yl (10-(2-(((2S,4R)-1-((S)-2-(1-fluorocyclopropane-1-carboxamido)-3,3-dimethylbutanoyl)-4-hydroxypyrrolidine-2-carboxamido)methyl)-5-(4-methylthiazol-5-yl)phenoxy)decyl)carbamate] here?
The DC50 was < 50 nM.

Which DC50 does the source give for `Cc1ncsc1-c1ccc(CNC(=O)[C@H]2C[C@H](O)CN2C(=O)[C@H](NC(=O)C2(F)CC2)C(C)(C)C)c(OCC(=O)N2CCC(CCCNC(=O)O[C@H]3C[C@@H](C)C=C4C=C[C@H](C)[C@H](CC[C@@H]5C[C@@H](O)CC(=O)O5)[C@H]43)CC2)c1` [Compound 168, (1S,3R,7S,8S,8aR)-8-(2-((2R,4R)-4-hydroxy-6-oxotetrahydro-2H-pyran-2-yl)ethyl)-3,7-dimethyl-1,2,3,7,8,8a-hexahydronaphthalen-1-yl (3-(1-(2-(2-(((2R,4S)-1-((R)-2-(1-fluorocyclopropane-1-carboxamido)-3,3-dimethylbutanoyl)-4-hydroxypyrrolidine-2-carboxamido)methyl)-5-(4-methylthiazol-5-yl)phenoxy)acetyl)piperidin-4-yl)propyl)carbamate] here?
Its DC50 is < 50 nM.

For `Cc1ncsc1-c1ccc(CNC(=O)[C@@H]2C[C@@H](O)CN2C(=O)[C@@H](NC(=O)C2(F)CC2)C(C)(C)C)c(OCCc2cn(CCCNC(=O)O[C@@H]3C[C@H](C)C=C4C=C[C@@H](C)[C@@H](CC[C@@H]5C[C@@H](O)CC(=O)O5)[C@@H]43)nn2)c1` [Compound 169, (1R,3S,7R,8R,8aS)-8-(2-((2R,4R)-4-hydroxy-6-oxotetrahydro-2H-pyran-2-yl)ethyl)-3,7-dimethyl-1,2,3,7,8,8a-hexahydronaphthalen-1-yl (3-(4-(2-(2-(((2S,4R)-1-((S)-2-(1-fluorocyclopropane-1-carboxamido)-3,3-dimethylbutanoyl)-4-hydroxypyrrolidine-2-carboxamido)methyl)-5-(4-methylthiazol-5-yl)phenoxy)ethyl)-1H-1,2,3-triazol-1-yl)propyl)carbamate], which DC50 is on record?
Its DC50 is < 50 nM.
